Patent US20230181578A1, “MODULATION OF MIXED LINEAGE KINASE DOMAIN-LIKE PROTEIN SIGNALING” (EBERHARD KARLS UNIVERSITÄT TÜBINGEN, priority 2020, published 2023)
Changes are numbered by the printed parent chain.

Legend:
MLKL [1] = experiment: MLKL translocation to the plasma membrane, TSZ-treated HT-29 wt cells; type: cell-based, human; details: FIG. 6E
Description: (§1) A-B) Dose-dependence of the inhibitory effect of MBA-h1 (A) or MBA-m1M (B) on necroptotic cell death in human (HT-29) and mouse (NIH-3T3) cells. C-D) Effect of MBA-h1 (C) or MBA-m1 (D) on MLKL phosphorylation. E-F) Effect of MBA-h1 (E) or MBA-m1 (F) on MLKL translocation to the plasma membrane. HT-29 (C and E) or NIH-3T3 (D and F) wt cells were TSZ-treated in the presence or not of the inhibitors. NSA was used as a control in C and E. G) Inhibitory effect of MBA-m1 in MLKL ko cells transfected with mMLKL2 or the mutant mMLKL2_I84A_F87A. Cells were transfected with the different variants of MLKL-GFP. The dead cell population was calculated from transfected cells. Individual values from at least three independent experiments are shown. H-I) MBA-m1 ameliorates dermatitis in Tnfr1-KO HoipE-KO mice. H) Representative images of mice before and after 2 weeks' treatment with MBA-m1. I) Severity score of dermatitis assessed after and before treatment with the inhibitor. […] To quantify the sore of region affected, 0 values were assigned to no lesion, and 1 values were assigned when lesions were found in either neck, back, flank or head, being the sum of these elements taken as the final score. To quantify the character of lesions, 0 values were assigned to no lesions, 1 to excoriations one or small punctuate crust, 2 to multiple punctuate crust or coalescing crust, 3 to erosion, ulceration or bleeding. […]

HT-29 = experiment: Necroptosis inhibition assay, TSZ-treated human HT-29 cells; type: cell-based
Description: (§2) A-B) Dose-dependence of the inhibitory effect of MBA-h1 (A) or MBA-m1M (B) on necroptotic cell death in human (HT-29) and mouse (NIH-3T3) cells. C-D) Effect of MBA-h1 (C) or MBA-m1 (D) on MLKL phosphorylation. E-F) Effect of MBA-h1 (E) or MBA-m1 (F) on MLKL translocation to the plasma membrane. HT-29 (C and E) or NIH-3T3 (D and F) wt cells were TSZ-treated in the presence or not of the inhibitors. NSA was used as a control in C and E. G) Inhibitory effect of MBA-m1 in MLKL ko cells transfected with mMLKL2 or the mutant mMLKL2_I84A_F87A. Cells were transfected with the different variants of MLKL-GFP. The dead cell population was calculated from transfected cells. Individual values from at least three independent experiments are shown. H-I) MBA-m1 ameliorates dermatitis in Tnfr1-KO HoipE-KO mice. H) Representative images of mice before and after 2 weeks' treatment with MBA-m1. I) Severity score of dermatitis assessed after and before treatment with the inhibitor. Tnfr1-KO HoipE-KO (n=3). To quantify the sore of region affected, 0 values were assigned to no lesion, and 1 values were assigned when lesions were found in either neck, back, flank or head, being the sum of these elements taken as the final score. To quantify the character of lesions, 0 values were assigned to no lesions, 1 to excoriations one or small punctuate crust, 2 to multiple punctuate crust or coalescing crust, 3 to erosion, ulceration or bleeding. Data are presented as mean values±s.e.m.
(§3) To evaluate the necroptotic potential of the different mMLKL isoforms, each of the three isoforms were re-expressed in NIH-3T3 MLKL knock out (ko) cells following induction of necroptosis with a mixture of TNF, a Smac mimetic compound (LCL-161) and the pan-caspase inhibitor zVAD (TSZ), which is the most commonly used necroptosis-inducing cocktail. The inventors quantified cell death by flow cytometry (FIG. 1B) and confocal microscopy (FIG. 1C) using propidium iodide (PI) as a marker of irreversible plasma membrane disruption. As expected, mMLKL3 was intrinsically active, on account of its lack of the psK domain. […]

phosphorylated MLKL [2] = experiment: MLKL phosphorylation, Western-blot, TSZ-treated HT-29 wt cells; type: cell-based, human; details: FIG. 6C
Description: as §1

hMLKL1 = biological target: T1, hMLKL1 (Homo sapiens, UniProt Q8NB16); experiment: Necroptosis inhibition in HT-29 MLKL ko cells re-expressing hMLKL1; type: cell-based; details: HT-29 MLKL ko re-expressing hMLKL1
T1 construct: GFP; expressed in transfected cells; host or cells: HT-29 MLKL ko cells
T1 sequence (Q8NB16 1-471): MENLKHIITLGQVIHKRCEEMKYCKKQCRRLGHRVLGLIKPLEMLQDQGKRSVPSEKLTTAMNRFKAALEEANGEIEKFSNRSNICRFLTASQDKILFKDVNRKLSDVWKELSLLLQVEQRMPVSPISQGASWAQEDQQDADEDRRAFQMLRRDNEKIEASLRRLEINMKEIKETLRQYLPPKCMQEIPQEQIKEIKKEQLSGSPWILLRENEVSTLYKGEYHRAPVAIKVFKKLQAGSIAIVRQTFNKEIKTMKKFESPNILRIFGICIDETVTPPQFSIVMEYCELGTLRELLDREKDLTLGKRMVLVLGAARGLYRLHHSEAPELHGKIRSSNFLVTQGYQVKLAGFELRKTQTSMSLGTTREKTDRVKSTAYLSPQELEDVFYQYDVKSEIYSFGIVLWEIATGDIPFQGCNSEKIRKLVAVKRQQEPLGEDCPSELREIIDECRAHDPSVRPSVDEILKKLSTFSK
Description: The species-specificity was expected considering the large difference in the He/groove interactions between mouse and human MLKL (FIGS. 3 and 4).

mMLKL2_I84A_F87A = biological target: T2, mMLKL2_I84A_F87A (Mus musculus, UniProt Q9D2Y4, F87A/I84A); experiment: Cell death assay in MLKL ko cells transfected with mutant mMLKL2_I84A_F87A; type: cell-based; details: FIG. 6G
T2 construct: GFP; expressed in transfected cells
T2 sequence (Q9D2Y4 1-464 isoform Q9D2Y4-2 I84A/F87A): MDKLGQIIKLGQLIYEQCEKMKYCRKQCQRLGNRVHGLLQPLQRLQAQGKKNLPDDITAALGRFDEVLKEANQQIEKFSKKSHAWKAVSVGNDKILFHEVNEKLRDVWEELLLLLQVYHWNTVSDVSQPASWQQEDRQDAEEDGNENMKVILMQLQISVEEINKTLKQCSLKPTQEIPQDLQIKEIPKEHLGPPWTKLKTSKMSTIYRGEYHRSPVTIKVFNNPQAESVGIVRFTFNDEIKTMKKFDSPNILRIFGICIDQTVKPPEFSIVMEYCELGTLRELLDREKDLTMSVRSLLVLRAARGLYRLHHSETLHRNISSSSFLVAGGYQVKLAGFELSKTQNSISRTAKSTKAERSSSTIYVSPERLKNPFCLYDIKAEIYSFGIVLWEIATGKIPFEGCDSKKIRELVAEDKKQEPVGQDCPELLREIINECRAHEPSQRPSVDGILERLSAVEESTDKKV
Description: as §1

NIH-3T3 WT cells = experiment: Necroptosis inhibition assay, TSZ-treated mouse NIH-3T3 WT cells; type: cell-based
Description: as §2, §3

Tnfr1KO;HoipEKO mice = experiment: Necroptosis-driven dermatitis in Tnfr1KO;HoipEKO mice; type: in vivo, mouse; details: treated daily for three weeks from 30 to 40 days of age, end of treatment
Description: as §2, with “H) Representative images of mice before and after 2 weeks' treatment with MBA-m1.” left out, “values±s.e.m. […]” for “values±s.e.m.”

mMLKL2 = biological target: T3, mMLKL2 (Mus musculus, UniProt Q9D2Y4); experiment: Necroptosis inhibition in NIH MLKL ko cells containing mMLKL2; type: cell-based
T3 construct: GFP; expressed in transfected cells; host or cells: NIH-3T3 MLKL ko cells
T3 sequence (Q9D2Y4 1-464 isoform Q9D2Y4-2): T2 sequence (Q9D2Y4 1-464 isoform Q9D2Y4-2 I84A/F87A) with A84I, A87F
Description: as §1

MLKL [3] = experiment: MLKL translocation to the plasma membrane, TSZ-treated NIH-3T3 wt cells; type: cell-based, mouse; details: FIG. 6F
Description: as §1

phosphorylated MLKL [4] = experiment: MLKL phosphorylation, Western-blot, TSZ-treated NIH-3T3 wt cells; type: cell-based, mouse; details: FIG. 6D
Description: as §1

Structure (SMILES): CN1CCN(c2ccc(-c3cccc(NC(=O)c4ccc5ccccc5c4)c3)nn2)CC1 [MBA-h1, N-[3-[6-(4-methylpiperazin-1-yl)pyridazin-3-yl]phenyl]naphthalene-2-carboxamide]
- effect on MLKL translocation to the plasma membrane (MLKL [1]): potently interfered with MLKL translocation to the plasma membrane
- concentrations at which inhibitory activity was observed (HT-29; HT-29 cells, FIG. 6A): lower than 10 μM
- toxicity (HT-29; at inhibitory concentrations, FIG. 6A): without evidence of toxicity
- inhibition of necroptosis (HT-29; human HT-29 cells, dose-dependent (FIG. 6A)): specifically inhibited necroptosis
- effect on MLKL phosphorylation (phosphorylated MLKL [2]): none of the compounds blocked the phosphorylation of MLKL
- inhibition of necroptosis (hMLKL1): inhibited necroptosis

Structure (SMILES): COc1ccc2nc(C)cc(Nc3ccc(Oc4ccc5ccccc5c4)c(Cl)c3)c2c1 [MBA-m1, N-(3-chloro-4-naphthalen-2-yloxyphenyl)-6-methoxy-2-methylquinolin-4-amine]
- inhibition of cell death mediated by mutant mMLKL2_I84A_F87A (mMLKL2_I84A_F87A): inert to inhibition
- concentrations at which necroptosis is inhibited (NIH-3T3 WT cells; NIH-3T3 cells, FIG. 6B, compared with MBA-h1 (lower than 10 μM)): able to inhibit necroptosis at similar concentrations
- concentrations at which toxicity was presented (NIH-3T3 WT cells; higher concentrations, FIG. 6B): 12.5 to 50 µM
- inhibition of necroptosis (NIH-3T3 WT cells; mouse NIH-3T3 WT cells, dose-dependent (FIG. 6B)): specifically inhibited necroptosis
- dermatitis, severity score of skin lesions (Tnfr1KO;HoipEKO mice): significantly ameliorated dermatitis
- inhibition of necroptosis (mMLKL2): had the same effect
- effect on MLKL translocation to the plasma membrane (MLKL [3]): potently interfered with MLKL translocation to the plasma membrane
- effect on MLKL phosphorylation (phosphorylated MLKL [4]): none of the compounds blocked the phosphorylation of MLKL

Structure (SMILES): COc1nccnc1NS(=O)(=O)c1ccc(NC(=O)/C=C/c2ccc([N+](=O)[O-])s2)cc1 [NSA, reference compound]
- effect on MLKL translocation to the plasma membrane (MLKL [1]): interfered with MLKL translocation to the plasma membrane
